Reference: publication PMC6630910 (Pharmaceuticals, 2019)

Key:
[1] = target: P-I type metalloproteinase Batx-I (Bothrops atrox, UniProt P0DJE1); test: biochemical
[2] = test system: PLA2 from snake venoms; details: same methodology as this paper; read-out: IC50 (PLA2 inhibition); cited from earlier work

Sequence of P-I type metalloproteinase Batx-I (P0DJE1 whole entry, looked up): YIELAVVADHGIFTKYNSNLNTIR

SMILES: CCOC(=O)CSC(=O)c1ccc([N+](=O)[O-])cc1 [III, Ethyl 2-((4-nitrobenzoyl)thio)acetate]
- IC50 [1]: 1880 µM
- melting point: 56.2 °C

SMILES: CCOC(=O)CSC(=O)c1ccc(Cl)cc1 [Compound I, Ethyl 2-((4-chlorobenzoyl)thio)acetate]
- activity at 2000 µM ([1]; read-out: Batx-I proteolytic activity still observed): 70%
- melting point: 55.6 °C

SMILES: O=C1c2c(O)cc(O)cc2O[C@H](c2ccc(O)cc2)[C@H]1c1c(O)cc(O)c2c(=O)cc(-c3ccc(O)c(O)c3)oc12 [Morelloflavone]
- IC50 [2]: 380 µM

SMILES: CCOC(=O)CSC(=O)c1cccc([N+](=O)[O-])c1 [II, Ethyl 2-((3-nitrobenzoyl)thio)acetate]
- IC50 [1]: 2770 µM
- melting point: 44.5 °C

SMILES: COc1cc(O)c2c(c1)O[C@H](c1ccccc1)CC2=O [Pinostrobin]
- IC50 [2]: 1850 µM
